In a compilation of properties of binary mixtures (doi:10.1007/s10953-017-0695-7):

Experiment: xn = mol fraction of the nth substance listed
Conditions: 101 kPa

CCCCCO + CCCCCC[n+]1ccn(C)c1.[Cl-]
x1 = 1
Conditions	viscosity [mPa·s]
293.15 K	3.99
313.15 K	2.29
323.15 K	1.79
333.15 K	1.39

OCCO + CCCCCC[n+]1ccn(C)c1.[Cl-]
x1 = 1
Conditions	viscosity [mPa·s]
293.15 K	21.35
303.15 K	14.1
313.15 K	9.74
323.15 K	7.02
333.15 K	5.2

CCCCCC[n+]1ccn(C)c1.[Cl-] + CCCCCO
viscosity [mPa·s]
Conditions	293.15 K	303.15 K	313.15 K	323.15 K	333.15 K
x1 = 0.0042	4.14	–	–	1.85	1.46
x1 = 0.0088	–	3.23	2.49	1.92	1.54
x1 = 0.0166	4.56	–	2.62	2.03	1.61
x2 = 0	11400	4206	1718	–	398
x2 = 0.1514	3550	–	803	418	192.5
x2 = 0.2971	1014	491	–	148.2	91
x2 = 0.5018	182.4	108.3	68.1	44.92	31.33
x2 = 0.6066	75.1	48.8	32.87	23.14	16.9
x2 = 0.7018	31.71	22.14	16.01	11.88	–
x2 = 0.8012	14.74	10.86	–	–	4.99
x2 = 0.849	–	7.85	6.03	4.68	3.76
x2 = 0.8825	8.5	6.37	4.92	3.87	3.06
x2 = 0.9494	5.73	4.29	3.28	2.56	2.02
x2 = 0.9749	4.83	3.63	2.81	2.17	1.71

CCCCCC[n+]1ccn(C)c1.[Cl-] + OCCO
viscosity [mPa·s]
Conditions	293.15 K	303.15 K	313.15 K	323.15 K	333.15 K
x1 = 0.003	–	14.18	9.77	7.07	5.21
x1 = 0.0061	21.52	14.23	9.86	–	–
x1 = 0.0124	21.64	14.24	9.94	7.17	5.33
x1 = 0.0188	21.81	–	–	7.24	5.4
x2 = 0	11400	–	1718	–	398
x2 = 0.1526	3449	861	629	326	–
x2 = 0.3167	774	385	214.7	127.1	79.6
x2 = 0.3999	387	210.7	124.2	77.3	51.2
x2 = 0.4977	–	102.8	65.1	42.5	–
x2 = 0.6002	–	53	35.51	–	18.06
x2 = 0.6987	46.8	30.76	–	–	–
x2 = 0.8026	29.46	19.81	13.95	10.18	7.71
x2 = 0.8897	24.2	16.2	–	8.37	6.32
x2 = 0.8998	23.77	16.02	11.25	–	6.18
x2 = 0.9152	23.12	15.52	10.98	7.98	6
x2 = 0.931	22.64	15.24	10.67	7.73	5.82
x2 = 0.9532	22.13	14.78	10.37	7.51	–
x2 = 0.9642	22.02	14.71	–	–	5.53
x2 = 0.9761	21.83	14.45	–	7.27	5.46
